Experimental data taken from paper PMC9506254, “Self-Emulsifying Formulations to Increase the Oral Bioavailability of 4,6,4′-Trimethylangelicin as a Possible Treatment for Cystic Fibrosis” (Pharmaceutics, 2022).

Experiments:
[1] = In vivo pharmacokinetics after oral gavage; conditions: mice
Description: All the experimental procedures involving animals were conducted in compliance with national and international guidelines for the handling and use of experimental animals (Authorization no. 853-2018-PR, 11 November 2018) and appropriately designed to minimize their pain or discomfort. All the animals were maintained in IVC cages under controlled conditions, with a 12/12 h dark/light cycle and free access to food and drink. For the pharmacokinetic analysis, a 20 mg/kg dose of TMA, suspended in water or dissolved in formulations A.1 and B.1, was administered to mice by oral gavage, after an overnight fast. Plasma samples (n = 3 per time point) were collected from the submandibular plexus before and 0.25, 0.5, 1, 2, 3, 4, 6, 24, and 48 h after the administration of TMA. The main PK parameters were calculated by means of the Microsoft Excel plug-in PK Solver, using standard formulae [25]. The data were analyzed using the software GraphPad Prism 8.0 (GraphPad Software Inc., San Diego, CA, USA) ver. 8.0, and, if not otherwise stated, are expressed as mean ± SD. Statistical analysis was performed using Student’s t test or one-way ANOVA, when appropriate, and p < 0.05 was considered statistically significant.
TMA was extracted from the samples by treating 100 µL of plasma with 300 µL of cold acetonitrile spiked with 80 nM of IS, and then the samples were centrifuged for 10 min at 12,000× g (Hettich Mikro 120 benchtop centrifuge) and 25 °C. 10 μL of the supernatant were injected into the UHPLC system. The quantification of TMA was carried out by external calibration of the normalized signals using a seven-point calibration curve obtained by spiking blank plasma with TMA in the range 20–3000 nM. […] The metabolites related to TMA were quantified in plasma by comparing the normalized area with the TMA calibration curve as there were no suitable analytical standards available. The data obtained should be considered semiquantitative, as it is not possible to ensure the same molar response factor for TMA and its metabolites under electrospray conditions.

[2] = Solubility of TMA in oils, surfactants, co-surfactants/co-solvents; format: physicochemical; conditions: 25 °C, 24 h, n = 3
Description: The solubility of TMA in different oils, surfactants, co-surfactants/co-solvent was determined by pouring an excess of TMA in a 2 mL glass vial containing 1 g of each excipient. The mixtures were vortexed and kept at 25 °C for 24 h, and then the samples were centrifuged at 15,000× g rpm for 10 min to remove the undissolved drug. The supernatant was diluted with a suitable solvent and the TMA was quantified by HPLC (Agilent 1220 Infinity LC, Agilent Technologies, Santa Clara, CA, USA) equipped with a UV-vis detector and a Zorbax 300SB C 18 column (4.6 × 250 mm, 5 µm, Agilent Technologies, Santa Clara, CA, USA). For the analysis of the organic solutions of TMA, a volume of 20 µL was injected into the column and a mixture of methanol and water (95:5) was used as mobile phase with a flow rate of 0.8 mL/min. Instead, for the analysis of aqueous solutions, 100 µL of sample was injected and a mixture 75:25 of methanol and water was used as mobile phase at a flow rate of 0.9 mL/min. The UV was set at a wavelength of 251 nm.

[3] = In vitro dissolution test in simplified FaSSIF and FeSSIF; format: physicochemical; conditions: FeSSIF compared with FaSSIF
Description: In vitro drug dissolution tests were performed using the USP 24 method with a dissolution apparatus 2 (Sotax AT7 Smart, Sotax, Allschwil, Switzerland) at 100 rpm. Dissolution tests were carried out under sink conditions at 37 ± 0.5 °C in 900 mL of two simplified simulated intestinal fluids to simulate the fed and fasted states. The composition of simplified FaSSIF (fasted-state simulated intestinal fluid) and FeSSIF (fed-state simulated intestinal fluid) buffers were those reported by Zoeller and Klein [24]. Samples (1 mL) were withdrawn at 5, 10, 15, 30, 45, 60, 90, 120, 240, and 300 min and the volume removed was replaced with an equal volume of temperature-equilibrated media. The samples were filtered through a 0.45 µm acetate cellulose filter and the TMA concentration was determined by HPLC-UV using the method reported in Section 2.3. The results were averaged from three replicated experiments.

[4] = Metabolic stability with human liver microsomes; format: in vitro ADME; conditions: 1 µM, 37 °C, NADPH, pH 7.4
Description: The metabolic stability of TMA was assessed by incubating the compound with human liver microsomes (HLMs) (BD Bioscience, Franklin Lakes, NJ, USA), as already described. Briefly, TMA was dissolved in DMSO (1 µM) and incubated at 37 °C for 10 and 30 min in 0.1 M phosphate buffer containing 200 µg of microsomes and 10 mM NADPH, pH 7.4. At the end of incubation, the reaction was stopped by addition of 200 µL cold acetonitrile. After centrifugation for 10 min at 12,000× g (Hettich Mikro 120 benchtop centrifuge), supernatants were collected and analyzed by means of ultra-high pressure liquid chromatography coupled to high-resolution mass spectrometry (UHPLC-HRMS) to assess metabolic stability of TMAas described in Section 2.8.1. […]
The UHPLC-HRMS system was equipped with Agilent 1260 Infinity II LC System coupled to an Agilent 6545 LC/Q-TOF mass analyzer (Agilent Technologies, Palo Alto, Santa Clara, CA, USA). […] The mobile phase gradient profile was as follows (t in min): t0–3 2% B; t3–18 2–100% B, t18–20 100% B; t20–30 0% B. The MS conditions were: electrospray (ESI) ionization in positive mode, gas temperature 325 °C, drying gas 10 L/min, nebulizer 20 psi, sheath gas temperature 400 °C, sheath gas flow 12 L/min, VCap 4000 V, nozzle voltage 0 V, fragmentor 180 V. Centroid full scan mass spectra were recorded in the range 100–1000 m/z with a scan rate of 1 spectrum/s. […]

[5] = Lipophilicity (Log p) and BCS classification from the literature; format: physicochemical; conditions: inferred from Log p and low water solubility
[6] = 20 mg/kg TMA, oral gavage, overnight fast, plasma TMA, mean ± S.D.

**Q.** Which “TMA-related metabolites in mouse plasma” value ([1]; 20 mg/kg TMA oral, semiquantitative, TMA calibration curve, LOD about 10 nM) does the source give for TMA-D here?
**A.** main metabolite

**Q.** Which results are given for `Cc1cc(=O)oc2c1cc(C)c1occ(C)c12` [TMA, 4,6,4′-trimethylangelicin]?
**A.** TMA Solubility ([2]; in Capryol PGMC (co-surfactant)): 7346 ± 380 µg/mL; TMA Solubility ([2]; in Cremophor EL (surfactant)): 9091 ± 217 µg/mL; TMA Solubility ([2]; in Ethanol (co-solvent)): 2509 ± 52 µg/mL; TMA Solubility ([2]; in Labrafac Lipophile WL1349 (oil)): 4639 ± 170 µg/mL; TMA Solubility ([2]; in Lauroglycol FCC (co-surfactant)): 6484 ± 92 µg/mL; TMA Solubility ([2]; in Maisine CC (oil)): 6340 ± 377 µg/mL; TMA Solubility ([2]; in Transcutol HP (co-solvent)): 9568 ± 131 µg/mL; TMA Solubility ([2]; in Tween 80 (surfactant)): 7040 ± 120 µg/mL; Amount of free TMA dissolved [3]: increases significantly; Initial amount of TMA metabolized by HLM enzymes ([4]; 10 min): 67 ± 15%; Degradation of TMA by HLM enzymes ([4]; 30 min): 90 ± 15%; CL/F ([1]; 20 mg/kg TMA, oral gavage, overnight fast, mean ± S.D.): 0.073 ± 0.029 mL/h/g; AUC0-inf [1, 6]: 0.29783 ± 0.11913 µM·h; Cmax [1, 6]: 186 ± 21.1 nM; Tmax [1, 6]: 0.38 ± 0.18 h; t1/2 [1, 6]: 1.71 ± 0.16 h; BCS classification system class [5]: class II
